For three molecules, Wirkung % and selectivity ratio results are on record in patent publication EP0072532A1, “5(6)-Phenyl-sulfonyloxy-benzimidazole derivatives, process for their production, pharmaceutical compositions containing them and their use against liver disorders” (priority 1981, dated 1983).

Read-outs that look alike come from different tables or passages of the source.

The test system of data set [1] is Fasciola hepatica. The data set is described as follows: Chemotherapeutic test against adult liver flukes in artificially infected sheep (egg count reduction / killed flukes), oral application. Format: in vivo, Schaf. From the text:
(§1) Zur Feststellung der Wirkung der erfindungsgemäßen Verbindungen gegen Fasciolide wurden chemotherapeutische Untersuchungen bei ca. 250 g schweren Ratten, bei 2 - 3,5 kg schweren Kaninchen oder an ca. 25 - 30 kg schweren Schaflämmern ausgeführt. Die Versuchstiere wurden mit 15, mit 50 bzw. mit 350 Metazerkarien von Fasciola hepatica artifiziell oral infiziert. Nach Ablauf der Präpatenzperiode (Zeit zwischen Infektion und Geschlechtsreife der Parasiten mit beginnender Ausscheidung von Vermehrungsprodukten) wurde der Parasitenbefall durch Kotuntersuchungen gesichert. Der qualitativ-quantitative Nachweis von Eiern erfolgte nach der Telemann-Anreicherung (Deutsche Medizinische Wochenschrift "34: 1510, 1908).
(§2) Unmittelbar nach der Bestimmung der Eizahl pro Gramm Kot wurde die Behandlung der Versuchstiere (im allgemeinen 3 - 4 Tiere pro Wirkstoff, mindestens aber zwei) vorgenommen. Den Tieren wurde oral eine Suspension von unterschiedlicher Wirkstoffmenge in jeweils festgelegten Volumen (Ratte: 0,5 ml/Tier, Kaninchen: 2 ml/Tier, Schaf: 10 ml/Tier) in einer Tylose-Suspension appliziert. Jeweils am 7., 14. und 28. Tag nach der Behandlung wurde wiederum nach der vorstehend angegebenen Methode die Eizahl pro Gramm Kot ermittelt und die prozentuale Abnahme im Vergleich zum Ausgangswert vor der Behandlung und in Vergleich zu unbehandelten Kontrolltieren errechnet.
(§3) Mit einigen erfindungsgemäßen Verbindungen wurden außerdem beim Fasciola-Befall noch eine zusätzliche Prüftechnik angewandt: Nach Abschluß der Präpatenzperiode wurde bei Fasciola-positiven Schafen ein künstlicher Gallengang geschaffen, der am Ausgang der Gallenblase ein Sieb enthielt, so daß die nach der Behandlung abgetöteten Leberegel in der Gallenblase aufgefangen werden konnten. Vier bis sieben Tage nach der Behandlung wurden die so operierten und dann behandelten Schafe getötet, die abgetöteten Leberegel in der Gallenblase so wie noch eventuell in der Leber vorhandene Leberegel gezählt und von der gesamten Wurmbürde der Prozentsatz der abgetöteten Parasiten berechnet. Bei ausgewählten Substanzen wurden über die Kotuntersuchung hinaus auch die behandelten Tiere seziert und die Leber auf eine eventuelle Rest-Wurmbürde von Fasciola hepatica untersucht.

The subject of data set [2] is Fasciola hepatica. The data set is described as follows: Chemotherapeutic test against adult liver flukes in artificially infected rats (reduction of egg count per gram faeces), oral application. Particulars: Ratte. Format: in vivo.
Text: as §1, §2, §3

Data set [3] deals with Fasciola hepatica. Put plainly: Chemotherapeutic test against adult liver flukes in artificially infected rabbits (reduction of egg count per gram faeces), oral application. The following applies: Kaninchen. Format: in vivo.
Text: Zur Feststellung der Wirkung der erfindungsgemäßen Verbindungen gegen Fasciolide wurden chemotherapeutische Untersuchungen bei ca. 250 g schweren Ratten, bei 2 - 3,5 kg schweren Kaninchen oder an ca. 25 - 30 kg schweren Schaflämmern ausgeführt. Die Versuchstiere wurden mit 15, mit 50 bzw. mit 350 Metazerkarien von Fasciola hepatica artifiziell oral infiziert. Nach Ablauf der Präpatenzperiode (Zeit zwischen Infektion und Geschlechtsreife der Parasiten mit beginnender Ausscheidung von Vermehrungsprodukten) wurde der Parasitenbefall durch Kotuntersuchungen gesichert.
as §2, §3

Another data set is described as follows: in vivo. Particulars: sheep, quotient of Dosis tolerata maxima and applied dose, read-out: Sicherheits-faktor. From the text:
Eine einmalige Verabreichung der erfindungsgemäßen Wirkstoffe in den angegebenen Dosierungen führt zu einem völligen Aufhören der Eiausscheidung und einer nahezu 100 %igen Befreiung der Tiere von Fasciola hepatica. Alle Dosierungen wurden von den Tieren ohne Nebenerscheinungen vertragen. Dieses wird durch den Sicherheitsfaktor unterstrichen, der wesentlich günstiger ist als bei den zum Vergleich herangezogenen Wirkstoffen
Der Sicherheitsfaktor gibt den Quotienten aus Dosis tolerate maxima und angewandter Dosis an. Die Ergebnisse dieser Versuche sind in der nachstehenden Tabelle zusammengestellt.

Where [4] appears, read: 75 mg/kg peroral, adult liver flukes.

As for `O=[N+]([O-])c1cc(Cl)cc(-c2cc(Cl)cc([N+](=O)[O-])c2O)c1O` [Niclofolan, 5,5'-Dichlor-2,2`-dihydroxy-3,3'-dinitro-phenyl], the Wirkung % in the data set with Fasciola hepatica [1] (Schaf, 1,5 mg/kg peroral) is recorded as below 50%; in the data set with Fasciola hepatica [1] (Schaf, 3,0 mg/kg peroral) it was above 90%; in the data set on Fasciola hepatica [2] (4 mg/kg peroral), 80%; in the data set with Fasciola hepatica [2] (8 mg/kg peroral) it was 90%; in the data set with Fasciola hepatica [3] (4 mg/kg peroral, death printed instead of an efficacy value) it was “Exitus”. Besides, the selectivity ratio in “in vivo” (applied dose 3,0 mg/kg (Schaf)) was determined as 4.4.

`CSc1nc2cc(OS(=O)(=O)c3cccc(C(F)(F)F)c3)ccc2[nH]1` [Beispiel 1, 5(6)-(3-Trifluormethyl-phenylsulfonyloxy)-2-methylmercapto-benzimidazol]: the Wirkung % is given as above 95% in the data set with Fasciola hepatica [1] (Schaf, 7,5 mg/kg peroral); 100% in the data set with Fasciola hepatica [1] (Schaf, 10,0 mg/kg peroral); 80% in the data set on Fasciola hepatica [2] (50 mg/kg peroral); 100% with Fasciola hepatica [2] (75 mg/kg peroral); 100% in the data set with Fasciola hepatica [3] (setting [4]); 100% in the data set with Fasciola hepatica [3] (<50 mg/kg peroral, adult liver flukes).

As to `CC(=O)Oc1c(I)cc(I)cc1C(=O)Nc1ccc(Cl)cc1` [Clioxanide, 2-Acetoxy-4-chlor-3,5-dijod-benzanilid], the Wirkung % result in the data set on Fasciola hepatica [1] (Schaf, 3,75 mg/kg peroral) is “ca.50%”; in the data set on Fasciola hepatica [1] (Schaf, 7,5 mg/kg peroral), above 90%; with Fasciola hepatica [2] (135 mg/kg peroral) it was 0%; in the data set with Fasciola hepatica [2] (200 mg/kg peroral), 0%; in the data set on Fasciola hepatica [3] (50 mg/kg peroral, adult liver flukes), 0%; in the data set on Fasciola hepatica [3] (setting [4]), 0%. In addition, the selectivity ratio in “in vivo” (applied dose 3,75 mg/kg (Schaf)) was determined as 30; in the data set “in vivo” (applied dose 7,5 mg/kg (Schaf)), 15.
